# According to paper PMC3633919, “Identification and Characterization of Pheromone Receptors and Interplay between Receptors and Pheromone Binding Proteins in the Diamondback Moth, Plutella xyllostella” (PLoS ONE, 2013):
# Tests used:
# PxylOR1/PxylOrco = biological target: T1, PxylOR1/PxylOrco (Plutella xylostella, UniProt N0A395); experiment: two-electrode voltage clamp, Xenopus oocytes; assay type: cell-based
# T1 construct: full-length untagged ORF 1269 bp (422 residues); pSP64T cRNA co-injected with PxylOrco cRNA in Xenopus laevis oocytes; with Odorant receptor coreceptor
# T1 sequence (N0A395 1-422): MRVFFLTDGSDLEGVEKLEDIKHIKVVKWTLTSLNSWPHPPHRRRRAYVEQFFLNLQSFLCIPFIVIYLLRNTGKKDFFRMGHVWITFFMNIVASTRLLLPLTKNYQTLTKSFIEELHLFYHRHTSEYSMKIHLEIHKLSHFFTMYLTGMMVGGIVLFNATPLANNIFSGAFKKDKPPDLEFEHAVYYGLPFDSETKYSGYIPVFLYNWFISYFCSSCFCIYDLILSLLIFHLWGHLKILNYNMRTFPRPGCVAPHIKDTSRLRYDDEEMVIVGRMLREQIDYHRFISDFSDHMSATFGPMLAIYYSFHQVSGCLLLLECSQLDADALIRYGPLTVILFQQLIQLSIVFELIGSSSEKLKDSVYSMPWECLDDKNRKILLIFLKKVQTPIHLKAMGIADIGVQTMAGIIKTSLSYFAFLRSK
# T1 sequence (D0EZE1 1-471 partner): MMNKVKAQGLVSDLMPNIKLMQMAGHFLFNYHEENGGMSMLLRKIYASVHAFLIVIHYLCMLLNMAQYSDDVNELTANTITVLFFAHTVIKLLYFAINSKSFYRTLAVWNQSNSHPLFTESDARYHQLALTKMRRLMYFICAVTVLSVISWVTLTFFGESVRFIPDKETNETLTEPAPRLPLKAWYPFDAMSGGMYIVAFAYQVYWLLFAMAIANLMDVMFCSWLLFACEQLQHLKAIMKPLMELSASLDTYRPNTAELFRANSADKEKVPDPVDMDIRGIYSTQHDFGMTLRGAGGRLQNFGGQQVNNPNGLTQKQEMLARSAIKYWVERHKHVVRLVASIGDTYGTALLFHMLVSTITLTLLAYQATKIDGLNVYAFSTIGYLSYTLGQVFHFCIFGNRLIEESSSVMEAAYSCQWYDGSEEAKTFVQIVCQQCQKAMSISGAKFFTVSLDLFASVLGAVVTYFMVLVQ
# PxylOR4/PxylOrco = biological target: T2, PxylOR4/PxylOrco (Plutella xylostella, UniProt M9ZZM3); experiment: two-electrode voltage clamp, Xenopus oocytes; assay type: cell-based
# T2 construct: full-length untagged ORF 1209 bp (402 residues); pSP64T cRNA co-injected with PxylOrco cRNA in Xenopus laevis oocytes; with Odorant receptor coreceptor
# T2 sequence (M9ZZM3 1-402): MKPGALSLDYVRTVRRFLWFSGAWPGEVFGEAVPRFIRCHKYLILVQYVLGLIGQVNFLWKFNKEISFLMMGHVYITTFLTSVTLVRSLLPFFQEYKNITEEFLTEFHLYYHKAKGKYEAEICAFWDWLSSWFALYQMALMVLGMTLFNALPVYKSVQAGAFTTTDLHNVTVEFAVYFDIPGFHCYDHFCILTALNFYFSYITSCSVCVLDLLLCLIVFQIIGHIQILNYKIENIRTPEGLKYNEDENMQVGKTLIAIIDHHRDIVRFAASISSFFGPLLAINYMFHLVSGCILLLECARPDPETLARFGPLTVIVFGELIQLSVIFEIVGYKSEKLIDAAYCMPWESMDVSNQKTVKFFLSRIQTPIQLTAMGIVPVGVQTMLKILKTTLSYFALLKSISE
# T2 sequence (D0EZE1 1-471 partner): T1 sequence (D0EZE1 1-471 partner)
EC50 (PxylOR1/PxylOrco),EC50 (PxylOR4/PxylOrco),SMILES
23.9 µM,,"CCCC/C=C\CCCCCCCCCC=O [Z11-16:Ald, (Z)-11-hexadecenal]"
,1.94 µM,"C/C=C/C/C=C\CCCCCCCCOC(C)=O [Z9,E12-14:Ac]"
,0.243 µM,"CCCC/C=C\CCCCCCCCOC(C)=O [Z9-14:Ac, (Z)-9-tetradecenyl acetate]"
